“Also recorded” adds a separate entry of the source.
Key:
rat dural blood flow = experiment: Decrease of dural blood flow induced by S1P; format: in vivo; settings: 10 mg/kg through femoral vein; S1P 300 μg/kg into cisterna
Source text: Rat (CD(SD)IGS, male, Charles River Japan Inc., 10 weeks old-13 weeks old, 450-520 g) was anesthetized by injection of urethane (1.2 g/kg, s.c.), placed in the femoral vein with catheter (polyethylene tube SP10; I.D. 0.28 mm, O.D. 0.61 mm: Natsume Seisakusho Co. Ltd.) for compounds administration, and then blood flow to brain through only vertebral artery was made to happen by tying both sides of common carotid arteries. Next, the scalp was cut open and the head region was exposed in order to measure dural blood flow and administer into cisterna. In addition, the trachea was placed with catheter (polyethylene tube; size 7.9: Hibiki) and it connected to the artificial respirator. The measurement of dural blood flow was performed to transmit with 1a ser light to skull using Moon Laser Doppler Imager (Moor LDI) [about 11cm distant from measuring object, about 150 dots both of XY measurement resolution, scanning about 2.8×2.8 cm area (150dots/2.8 cm)]. In addition, measurement condition involved in flux calculation (FLUX; relative value) such as sensitivity -gain etc., was integrated within all experiment. The images of blood flow were captured through the capture software, moor LDI Measurement V3.08, and image data was treated with analyzed software, moor LDI Image Processing V3.08. […]

SD rat = experiment: Increase of rat blood pressure by S1P; format: in vivo; settings: anesthetized male SD rat, intraperitoneally injected
Method: Male SD Rat (8 weeks old-10 weeks old) was anesthetized by injection of pentobarbital sodium (50 mg/mL/kg), after midline incision in the cervical region, trachea was exposed by exfoliation of tracheal muscle layer and cannula made of polyethylene was inserted into trachea. Next, catheter made of polyethylene was inserted into the common carotid artery and the common jugular vein. Catheter inserted into the common carotid artery was connected to the piezotransducer and the blood pressure was recorded on the recorder through strain compression amplifier. After the above mentioned operation was finished, in the case of the spinal chord was broken, the spinal chord was broken by insertion of stainless pole into the spinal chord cavity. After the spinal chord was broken, tracheal cannula was immediately connected into the artificial breathing device for small animals and artificial ventilation was performed under the conditions of a ventilatory volume 6 mL/kg and velocity 60 times/min. After then, S1P was administered and we confirmed blood pressure was increased. […] As a result, the compound (3) inhibited the increase of blood pressure by S1P.

SHR rat = experiment: Blood pressure of SHR rat; format: in vivo; settings: 1 mg/kg, 3 mg/kg and 10 mg/kg, i.v.; SHR rat under the awakening
Source text: Rat (SHR/Crj, male, Charles River Japan Inc., 12 weeks old-13 weeks old) was anesthetized by ether, and then rat was fixed in the dorsal position on the laboratory table. Cannula filled with physiologic saline containing heparin was inserted into the femoral artery and cannula filled with physiologic saline was inserted into the femoral vein, respectively. After finish of the operation, rat was fixed in the ballmancage and left at rest until the awakening. The artery cannula was connected to the piezotransducer (DX-100, Nihon Kohden) and the blood pressure was measured through strain compression amplifier(AP-601G, Nihon Kohden). After about 30 minutes from confirming awakening of rat, the blood pressure was measured for additional 30 minutes and then, the compound (3) (1 mg/kg, 3 mg/kg, and 10 mg/kg, i.v.) or vehicle (10% DMSO/plasma) was administered intravenously. After administration, blood pressure was measured for more than 30 minutes. […] In contrast, the compound (3) had little effect on the heart rate.

[1] = test system: removed rabbit coronary artery; experiment: Vasoconstrictor action of removed rabbit coronary artery; settings: removed rabbit coronary artery ring
Method: The heart was removed from Male rabbit (NZ White, a bout 2 kg) under anesthesia and immersed into cooled Krebs-Henseleit solution. After that, coronary artery was cut out, heart muscle and fat tissue connected around the heart were removed and ringed samples were made. Samples hung in micro tissue organ bath (MTOB-1: Preimetech Corp.) filled with Krebs-Henseleit solution (37° C.) or magnus tube, they were loaded with about 0.2 g-0.5 g resting tension stabilized for about 60 minutes, and then constrictive movement was recorded on a recorder (linearcoda WR3320: Graphtec Corp.) through strain compression amplifier (AP-601G, Nihon Kohden).

removed rat heart = experiment: Removed rat heart (Langendorff heart); settings: Langendorff heart mode
Source text: Rat (CD(SD)IGS, male, Charles River Japan Inc., 8 weeks old-10 weeks old, 300-450 g) was anesthetized by diethylether, opened the abdominal cavity, injected intravenously with heparin and then, exsanguinated to death. The heart was quickly removed by opening the chest cavity and the removed heart was immersed into cooled Krebs-Henseleit solution. The tissues were trimmed away under the cooling, aortic arches were inserted into the heart functional measuring equipment and fixed with sutures without leaking out. The rat heart function was measured using the heart functional measuring equipment (model IPH-W2, Labo-support). The equipment was used in the Langendorff Heart mode (non-working heart mode) and load was 68-70 mmHg. […] Catheter filled with physiological saline was inserted into the left ventricle, the catheter was connected to the piezotransducer (DX-100, Nihon Kohden) and the left ventricle pressure (LVP) was measured through strain compression amplifier (AP-601G, Nihon Kohden). Heart rate was calculated using LVP data with the heart rate measuring equipment (AT-601G, Nihon Kohden) and dLVP/dt was calculated with differential processor (EQ-641G, Nihon Kohden). Probes of electromagnetic flowmeter (model FF-020T, inside diameter 2 mm, Nihon Kohden) were set on the way to the passage of nutrient solution and the flow rate of nutrient solution (corresponding the blood flow rate of coronary artery) was measured using electromagnetic flowmeter (MFV-3100, Nihon Kohden). Administration of S1P and the compounds was performed by injection of dilution with nutrient solution into the passage of nutrient solution using infusion pump. The injection rate of drug solution was set as the flow rate of nutrient solution before starting of administration. […] Using the above mentioned model, effect of EDG-5 antagonist on heart function was examined. […] EDG-5 antagonist, the compound (1), the compound (2) and the compound (3) increased the flow rate of nutrient solution. In addition, they increased contractive force of heart muscle at the same time. […] It was considered that S1P had no direct chronotropic action and inotropic action on pacemaker and heart muscle and S1P had lowering effect on heart function by contracting the coronary blood vessels and ischemia.

## Cc1nn(C)c2nc(NNC(=O)Nc3cc(Cl)nc(Cl)c3)cc(C(C)C)c12 [compound (3), N-(2,6-dichloro-4-piridinyl)-2-(4-isopropyl-1,3-dimethyl-1H-pyrazolo[3,4-b]pyridin-6-yl)hydrazinecarboxamide]
Rat dural blood flow
  inhibition of decrease of dural blood flow by S1P: inhibited; also recorded: suppression
SD rat
  inhibition of the increase of blood pressure by S1P: inhibited
SHR rat
  antihypertensive effect on SHR rat blood pressure: antihypertensive effect
[1]
  inhibitory activity on constriction of rabbit coronary artery by S1P: inhibitory activity
Removed rat heart
  flow rate of nutrient solution (corresponding the blood flow rate of coronary artery): increased
Removed rat heart; EDG-5 antagonist
  contractive force of heart muscle: increased

Reference: US8765783B2, “Pharmaceutical composition for treatment of disease due to vascular constriction or vasodilation” (Ono Pharmaceuticals Co., Ltd., priority 2002, dated 2014)
